≈ marks a conversion by molar mass, not a printed value.
Columns and labels:
[1] = test system: T1, Pseudomonas aeruginosa PΔ6-Pore; assay: microbe, parasite or virus in culture; design: 2-fold serial broth dilution MIC (at least 90% growth inhibition); conditions: read-out: MICs (mg/L) in strains: / D6-Pore
T1 construct: PΔ6-Pore (six efflux pumps deleted, hyperporinated with fhuADCΔ4L)
Experimental: (§1) Antibacterial activities were tested using a 2-fold serial dilution broth assay as described previously ([13]). The antibacterial activities are expressed as MIC (defined as at least 90% of growth inhibition) and IC50. To follow the fate of compounds in cells and to identify descriptors associated with different permeation barriers, we first separated the contributions of the OM barrier and active efflux in measured activities of compounds. For this purpose, the bacterial growth-inhibitory activities for all Rempex compounds were analyzed in four P. aeruginosa strains: the wild-type strain, PAO1; the PΔ6 strain, lacking six efflux pumps (ΔmexAB-oprM, ΔmexCD-oprJ, ΔmexXY, ΔmexJKL, ΔmexEF-oprN, and ΔtriABC); and their hyperporinated derivatives, PAO1-Pore and PΔ6-Pore, respectively ([39]). These strains were previously shown to differ dramatically in their susceptibilities to various classes of antibiotics because of differences in efflux proficiency and permeation across the OM ([13], [15]). To normalize to the differences in target inhibition potency among compounds, our key measured parameters were efflux ratios and OM barrier ratios, defined as the 50% inhibitory concentration for the parent/mutant (IC50 parent/IC50 mutant), for efflux mutants and hyperporinated mutants, respectively (see Table S1 in the supplemental material). More specifically, the IC50 ratios for PAO1/PAO1-Pore and PΔ6/PΔ6-Pore define the contribution of the OM barrier to the activities of compounds in the presence and absence of efflux, respectively. […] Activities of only a few compounds were slightly affected by the OM. Among them are compounds 58 and 46 (Fig. 1A), whose activity is enhanced by hyperporination of efflux-deficient PΔ6-Pore cells by 16- and 8-fold, respectively.

[2] = test system: T2, Pseudomonas aeruginosa PAO1-Pore; assay: microbe, parasite or virus in culture; design: 2-fold serial broth dilution MIC (at least 90% growth inhibition); conditions: PAO1, read-out: MICs (mg/L) in strains: / PAO1-Pore
T2 construct: PAO1-Pore (hyperporinated, attTn7::mini-Tn7T-Gmr-lacIq-pLAC-fhuADCΔ4L)
Experimental: as §1

[3] = test system: T3, Pseudomonas aeruginosa PAO1; assay: microbe, parasite or virus in culture; design: 2-fold serial broth dilution MIC (at least 90% growth inhibition); conditions: PAO1, read-out: MICs (mg/L) in strains: / PAO1
T3 construct: PAO1 (attTn7::mini-Tn7T-Gm-lacIq-pLAC-MCS)
Experimental: as §1

[4] = test system: T4, Pseudomonas aeruginosa PΔ6; assay: microbe, parasite or virus in culture; design: 2-fold serial broth dilution MIC (at least 90% growth inhibition); conditions: read-out: MICs (mg/L) in strains: / D6
T4 construct: PΔ6 (PAO1 ΔmexAB-oprM ΔmexCD-oprJ ΔmexXY ΔmexJKL ΔmexEF-oprN ΔtriABC, efflux-deficient)
Experimental: as §1

[5] = target: T5, MexB (Pseudomonas aeruginosa, UniProt P52002); assay: SPR (Biacore T200, CM5 chip, immobilized MexB, kinetic fit); assay type: binding
T5 construct: purified MexB immobilized by amine coupling
T5 sequence (P52002 whole entry): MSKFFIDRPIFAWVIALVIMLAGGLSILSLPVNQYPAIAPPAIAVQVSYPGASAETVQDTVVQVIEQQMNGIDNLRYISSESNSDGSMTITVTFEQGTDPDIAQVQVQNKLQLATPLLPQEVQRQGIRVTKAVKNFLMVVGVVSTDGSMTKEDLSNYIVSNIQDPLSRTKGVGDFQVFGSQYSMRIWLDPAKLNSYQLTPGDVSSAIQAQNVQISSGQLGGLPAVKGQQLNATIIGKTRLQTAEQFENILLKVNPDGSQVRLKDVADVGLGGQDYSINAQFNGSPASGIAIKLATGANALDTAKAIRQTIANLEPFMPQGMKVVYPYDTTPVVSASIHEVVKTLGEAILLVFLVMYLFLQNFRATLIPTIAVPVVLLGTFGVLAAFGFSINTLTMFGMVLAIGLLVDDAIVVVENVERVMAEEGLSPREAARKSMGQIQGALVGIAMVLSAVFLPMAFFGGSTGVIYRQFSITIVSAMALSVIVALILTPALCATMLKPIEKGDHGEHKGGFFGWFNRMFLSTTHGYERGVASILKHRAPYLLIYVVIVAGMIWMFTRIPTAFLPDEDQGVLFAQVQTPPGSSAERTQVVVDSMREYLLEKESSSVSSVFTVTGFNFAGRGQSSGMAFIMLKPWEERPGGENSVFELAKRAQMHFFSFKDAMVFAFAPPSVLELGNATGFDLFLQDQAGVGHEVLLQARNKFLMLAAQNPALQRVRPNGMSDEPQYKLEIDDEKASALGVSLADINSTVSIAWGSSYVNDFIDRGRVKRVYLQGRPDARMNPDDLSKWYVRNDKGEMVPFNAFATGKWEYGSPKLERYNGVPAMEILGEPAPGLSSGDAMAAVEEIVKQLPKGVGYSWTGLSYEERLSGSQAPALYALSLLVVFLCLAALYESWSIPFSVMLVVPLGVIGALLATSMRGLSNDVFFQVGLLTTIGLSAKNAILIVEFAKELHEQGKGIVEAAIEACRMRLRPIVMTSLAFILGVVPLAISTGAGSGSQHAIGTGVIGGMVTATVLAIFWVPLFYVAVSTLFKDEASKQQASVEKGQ

| Structure (SMILES) | MIC [1] [mg/L] | MIC [2] [mg/L] | MIC [3] [mg/L] | MIC [4] [mg/L] | Kd [5] [µM] |
| --- | --- | --- | --- | --- | --- |
| CCN1CCN(C(=O)N[C@@H](C(=O)N[C@@H]2C(=O)N3C(C(=O)O)=C(CSc4nnnn4C)CS[C@H]23)c2ccc(O)cc2)C(=O)C1=O [OU-634, cefoperazone] | 0.97 (≈ 1.5 µM) | 0.97 (≈ 1.5 µM) | 3.9 (≈ 6.04 µM) | – | – |
| CO/N=C(\C(=O)N[C@@H]1C(=O)N2C(C(=O)O)=C(CSc3nc(=O)c(O)nn3C)CS[C@H]12)c1csc(N)n1 [OU-640, ceftriaxone] | 0.06 (≈ 0.108 µM) | 0.97 (≈ 1.75 µM) | 15.6 (≈ 28.1 µM) | 3.9 (≈ 7.03 µM) | – |
| CO[C@@]1(NC(=O)C2SC(=C(C(N)=O)C(=O)O)S2)C(=O)N2C(C(=O)O)=C(CSc3nnnn3C)CS[C@@H]21 (stereo partly drawn) [OU-654, cefotetan] | 12.5 (≈ 21.7 µM) | 200 (≈ 347 µM) | > 400 | 100 (≈ 174 µM) | – |
| O=C(O)C1=C(CSc2nnnn2CS(=O)(=O)O)CS[C@@H]2[C@H](NC(=O)[C@H](O)c3ccccc3)C(=O)N12 [OU-666, cefonicid] | 3.9 (≈ 7.19 µM) | 3.9 (≈ 7.19 µM) | 62.5 (≈ 115 µM) | – | – |
| Nc1nc(/C(=C/CC(=O)O)C(=O)N[C@@H]2C(=O)N3C(C(=O)O)=CCS[C@H]23)cs1 [OU-668, ceftibuten] | 128 (≈ 312 µM) | 2000 (≈ 4870 µM) | > 2000 | 1000 (≈ 2440 µM) | – |
| CO[C@@]1(NC(=O)C(C(=O)O)c2ccc(O)cc2)C(=O)N2C(C(=O)O)=C(CSc3nnnn3C)CO[C@@H]21 (stereo partly drawn) [OU-672, moxalactam] | 0.97 (≈ 1.86 µM) | 15.6 (≈ 30 µM) | 62.5 (≈ 120 µM) | 62.5 (≈ 120 µM) | – |
| Cc1cc(O)c(C(=O)N[C@@H](C(=O)N[C@@H]2C(=O)N3C(C(=O)O)=C(CSc4nnnn4C)CS[C@H]23)c2ccc(O)cc2)cn1 [OU-031452, cefpiramide] | 250 (≈ 408 µM) | > 1000 | > 1000 | > 1000 | – |
| C[N+](CCN)(CCN)CCC[C@H](N)C(=O)N[C@H](CCc1ccc(C(F)(F)F)cc1)C(=O)Nc1cnc2ccccc2c1 [compound 17] | – | – | – | – | 24.2 |

— article PMC7845643, “Predictive Rules of Efflux Inhibition and Avoidance in Pseudomonas aeruginosa” (mBio, 2021)
